Experiments:
α-D-glucosidase = test: Determination of α-D-glucosidase inhibitory activity (PNPG colorimetry at 400 nm); assay type: biochemical; details: 30 μL inhibitor sample solution in total, from 5 μmol/mL stock solutions, total amount of DNJ and Fag constant, 37° C.
From the text: Determination of α-D-glucosidase inhibitory activity of the combination compatibility of 1-deoxynojirimycin and fagomine. 1. Medicines: 1-deoxynojirimycin and fagomine, homemade. 2. Reagents: potassium dihydrogen phosphate, sodium hydroxide, sodium bicarbonate, para-nitrophenyl glucoside (PNPG), reduced glutathione and α-D-glucosidase sucrose. 3. Instrument: TU-1901 UV-Vis spectrophotometer. 4. Test method and results (1) Preparation of potassium phosphate buffer solution: dissolve 0.68120 g of potassium dihydrogen phosphate in 25 mL of distilled water, obtain stock solution 1, dissolve 0.2 g of NaOH in 25 mL of the distilled water, obtain stock solution 2, suck the stock solution 1 (25 mL), add into the stock solution 2 (11.8 mL), shake up, dilute to 100 mL and obtain the potassium phosphate buffer solution. (2) Na2CO[…] solution: […] Take 250 μL of the 1-deoxynojirimycin stock solution, dilute to 1 mL with the distilled water, and obtain the stock solution 1. Take 250 μL of the fagomine stock solution, dilute to 1 mL with the distilled water, and obtain the stock solution 2. […] (9) Determination reaction of α-D-glucosidase inhibitory activity Add the reagents according to the sequence in Table 1 for reaction, determine the absorbance value and calculate the α-glycosidase inhibition ratio of a sample according to the following formula: [formula] […]

[1] = test system: NOD mice with spontaneous hyperglycemia; test: Blood glucose of mice with spontaneous hyperglycemia after 14 days intragastric administration; assay type: in vivo; details: for Blood glucose after administration: 1 h after administration at day 14, fasted 6 h, X ± SD; for Blood glucose before administration: n=10, X ± SD
Experimental: (§1) Impacts of the composition in different doses on blood glucose and serum insulin of mice with spontaneous hyperglycemia
(§2) 1, Medicines: 1-deoxynojirimycin and fagomine, prepared by the inventor. The two are prepared into the required concentrations with distilled water before the test (the sum of the concentrations of the 1-deoxynojirimycin and the fagomine in the composition is the same as the concentration of the fagomine or the 1-deoxynojirimycin which is prepared alone). Glibenclamide is obtained from Hunan Dongting Pharmaceutical Co., Ltd. 2. Animals: NOD mice with the weight of 25-35 g, provided by Experimental Animal Center, Peking University Health Science Center. Determine the blood glucose before the test and select the animals with the blood glucose value of above 11.1 mmol/L for carrying out the test. 3. Determination instrument: Yicheng blood glucose tester, developed by Beijing Yicheng Bioelectronic Technology Co., Ltd. 4. Main reagents: ^125I-insulin radioimmunoassay kit, produced by Department of Isotopes, China Institute of Atomic Energy. 5. Test method and results (1) Impacts on the blood glucose of the mice: determine the blood glucose of the NOD mice after fasting for 6 h, select 70 animals with blood glucose above 11.1 mmol/L, randomly divide into seven groups, respectively carry out intragastric administration and give the following medicines: i) control group (distilled water); ii) glibenclamide group (50 mg/kg); and iii)-v) composition in different mixing ratios (20 mg/kg, with different medicine proportions and constant total amount). Carry out the continuous administration for 14 days, fast for 6 h before the administration at the 14th day, draw blood from the animals 1 h after the administration, use the Yicheng blood glucose tester to determine the blood glucose value of the animals, and determine the serum insulin by radioimmunoassay.

[2] = test system: NOD mice with spontaneous hyperglycemia; test: Serum insulin of mice with spontaneous hyperglycemia (radioimmunoassay); assay type: in vivo; details: for Serum insulin: 1 h after administration at day 14, X ± SD; for Effect on serum insulin of the NOD mice, result in words: 20 mg/kg, 14 days
Experimental: as §1, §2

[3] = test system: SD rats with streptozotocin-induced hyperglycemia; test: Blood glucose of rats with streptozotocin-induced hyperglycemia after intragastric sucrose; assay type: in vivo; details: STZ rats, 60 mg/kg intragastric for 14 days
Experimental: Medicines: 1-deoxynojirimycin-fagomine mixture (2:1), homemade. The mixture is prepared to the required concentration with distilled water before the test. Glucobay is obtained from Bayer Healthcare Co., Ltd. Catechin, ginkgo biloba extract and flavonoids from mulberry leaves were obtained from Hunan Geneham Biomedical Technology Ltd. 2. Animals: SD rats with the weight of 180-220 g, half male and half female, provided by Hunan Institute of Pharmaceutical Industry Research. Modeling method: carry out small dose intravenous injection of 25 mg/kg of streptozotocin on the rats after fasting for 24 h, once a week, simultaneously heat feed for feeding, induce H type diabetes, determine the blood glucose 1 week after the second injection, and select the animals with the fasting blood glucose of above 7.8 mmol/L for carrying out the test. […] Reagents: streptozotocin, product of Sigma Company, USA. Use citric acid buffer solution (PH=4.0) before modeling, and prepare at low temperature; sucrose, analytically pure. […] PLUS blood glucose monitoring meter. […]

[4] = 20 mg/kg intragastric for 14 days
[5] = 50 mg/kg intragastric for 14 days

Compound | α-glycosidase inhibition ratio % (α-D-glucosidase) | Blood glucose after administration [1, 4] | Blood glucose before administration ([1]; 20 mg/kg intragastric) | Effect on blood glucose of the NOD mice, result in words ([1]; 20 mg/kg, 14 days) | Serum insulin [2, 4] | Effect on serum insulin of the NOD mice, result in words [2] | Blood glucose after administration [1, 5] | Blood glucose before administration ([1]; 50 mg/kg intragastric) | Serum insulin [2, 5] | Blood glucose value of rats with hyperglycemia, after administration ([3]; day 14, 1.0 h after 5.0 g/kg sucrose) | Blood glucose value of rats with hyperglycemia, before administration ([3]; day 14, fasted 6 h, before sucrose administration)
OCC1NCC(O)C(O)C1O (stereo not shown) [DNJ] | 44% | 10.60 ± 2.13 mmol/L | 14.20 ± 1.33 mmol/L | significantly reduce the blood glucose | 16.14 ± 2.63 MIU/L | little effect |  |  |  |  | 
OC[C@H]1NCC[C@@H](O)[C@@H]1O [Fagomine, fagomine] | 21% | 12.24 ± 1.62 mmol/L | 13.49 ± 1.65 mmol/L |  | 21.78 ± 3.34 MIU/L | significantly improve the serum insulin level |  |  |  |  | 
COc1ccc(Cl)cc1C(=O)NCCc1ccc(S(=O)(=O)NC(=O)NC2CCCCC2)cc1 [Glibenclamide] |  |  |  |  |  |  | 10.57 ± 2.17 mmol/L | 13.26 ± 2.26 mmol/L | 22.57 ± 3.05 MIU/L |  | 
Catechin |  |  |  |  |  |  |  |  |  | 14.10 ± 1.50 mmol/L | 9.17 ± 0.89 mmol/L

Source: patent US20110171328A1, “PHARMACEUTICAL COMPOSITION FOR TREATING DIABETES” (priority 2008, published 2011)
